ChEMBL document CHEMBL3046635, “Synthesis and Herbicidal Activity of New Pyrazole-4-carboxamide Derivatives” (J Pestic Sci, 2004)
The source made the active and inactive calls.

Experiments:
Elatine triandra [1] = experiment: Pre-emergence herbicidal activity against Elatine triandra assessed as bleaching of stem/leaf parts; assay type: functional, organism-based
Ammannia multiflora [2] = experiment: Pre-emergence herbicidal activity against Ammannia multiflora assessed as bleaching of stem/leaf parts; assay type: functional, organism-based
[3] = system: Schoenoplectiella juncoides; experiment: Pre-emergence herbicidal activity against Schoenoplectiella juncoides at 2000 g a.i/ha measured after 14 days; assay type: functional, organism-based
Echinochloa oryzicola [4] = experiment: Post-emergence herbicidal activity against Echinochloa oryzicola assessed as bleaching of stem/leaf parts; assay type: functional, organism-based; note: test concentration or dose not given here
Ammannia multiflora [5] = experiment: Post-emergence herbicidal activity against Ammannia multiflora assessed as bleaching of stem/leaf parts; assay type: functional, organism-based; note: test concentration or dose not given here
Pontederia vaginalis [6] = experiment: Pre-emergence herbicidal activity against Monochoria vaginalis assessed as bleaching of stem/leaf parts; assay type: functional, organism-based
Lindernia procumbens [7] = experiment: Pre-emergence herbicidal activity against Lindernia procumbens assessed as bleaching of stem/leaf parts; assay type: functional, organism-based
Pontederia vaginalis [8] = experiment: Post-emergence herbicidal activity against Monochoria vaginalis assessed as bleaching of stem/leaf parts; assay type: functional, organism-based; note: test concentration or dose not given here
Ammannia multiflora [9] = experiment: Pre-emergence herbicidal activity against Ammannia multiflora at 2000 g a.i/ha measured after 14 days; assay type: functional, organism-based
Cyperus difformis [10] = experiment: Pre-emergence herbicidal activity against Cyperus difformis at 2000 g a.i/ha measured after 14 days; assay type: functional, organism-based
[11] = system: Schoenoplectiella juncoides; experiment: Pre-emergence herbicidal activity against Schoenoplectiella juncoides assessed as bleaching of stem/leaf parts; assay type: functional, organism-based
Echinochloa oryzicola [12] = experiment: Pre-emergence herbicidal activity against Echinochloa oryzicola assessed as bleaching of stem/leaf parts; assay type: functional, organism-based
Cyperus difformis [13] = experiment: Pre-emergence herbicidal activity against Cyperus difformis assessed as bleaching of stem/leaf parts; assay type: functional, organism-based
Cyperus difformis [14] = experiment: Post-emergence herbicidal activity against Cyperus difformis assessed as bleaching of stem/leaf parts; assay type: functional, organism-based; note: test concentration or dose not given here
Eleocharis acicularis [15] = experiment: Post-emergence herbicidal activity against Eleocharis acicularis assessed as bleaching of stem/leaf parts; assay type: functional, organism-based; note: test concentration or dose not given here
Oryza sativa = experiment: Phytotoxicity against Oryza sativa cv. Koshihikari (rice) at 2000 g a.i/ha measured after 14 days; assay type: organism-based; conditions: in vivo, 336 h
Eleocharis acicularis [16] = experiment: Pre-emergence herbicidal activity against Eleocharis acicularis assessed as bleaching of stem/leaf parts; assay type: functional, organism-based
Lindernia procumbens [17] = experiment: Pre-emergence herbicidal activity against Lindernia procumbens at 2000 g a.i/ha measured after 14 days; assay type: functional, organism-based
[18] = system: Schoenoplectiella juncoides; experiment: Post-emergence herbicidal activity against Schoenoplectiella juncoides assessed as bleaching of stem/leaf parts; assay type: functional, organism-based; note: test concentration or dose not given here
Elatine triandra [19] = experiment: Post-emergence herbicidal activity against Elatine triandra assessed as bleaching of stem/leaf parts; assay type: functional, organism-based; note: test concentration or dose not given here
Rotala indica [20] = experiment: Pre-emergence herbicidal activity against Rotala indica at 2000 g a.i/ha measured after 14 days; assay type: functional, organism-based
Echinochloa oryzicola [21] = experiment: Pre-emergence herbicidal activity against Echinochloa oryzicola at 2000 g a.i/ha measured after 14 days; assay type: functional, organism-based
Rotala indica [22] = experiment: Post-emergence herbicidal activity against Rotala indica assessed as bleaching of stem/leaf parts; assay type: functional, organism-based; note: test concentration or dose not given here
Eleocharis acicularis [23] = experiment: Pre-emergence herbicidal activity against Eleocharis acicularis at 2000 g a.i/ha measured after 14 days; assay type: functional, organism-based
Lindernia procumbens [24] = experiment: Post-emergence herbicidal activity against Lindernia procumbens assessed as bleaching of stem/leaf parts; assay type: functional, organism-based; note: test concentration or dose not given here
Rotala indica [25] = experiment: Pre-emergence herbicidal activity against Rotala indica assessed as bleaching of stem/leaf parts; assay type: functional, organism-based
Elatine triandra [26] = experiment: Pre-emergence herbicidal activity against Elatine triandra at 2000 g a.i/ha measured after 14 days; assay type: functional, organism-based
Pontederia vaginalis [27] = experiment: Pre-emergence herbicidal activity against Monochoria vaginalis at 2000 g a.i/ha measured after 14 days; assay type: functional, organism-based

SMILES | Activity (Elatine triandra [1]) | Activity (Ammannia multiflora [2]) | Activity [3] | Activity (Echinochloa oryzicola [4]) | Activity (Ammannia multiflora [5]) | Activity (Pontederia vaginalis [6]) | Activity (Lindernia procumbens [7]) | Activity (Pontederia vaginalis [8]) | Activity (Ammannia multiflora [9]) | Activity (Cyperus difformis [10]) | Activity [11] | Activity (Echinochloa oryzicola [12]) | Activity (Cyperus difformis [13]) | Activity (Cyperus difformis [14]) | Activity (Eleocharis acicularis [15]) | Activity (Oryza sativa) | Activity (Eleocharis acicularis [16]) | Activity (Lindernia procumbens [17]) | Activity [18] | Activity (Elatine triandra [19]) | other results
CCCN(CC)C(=O)c1cn(C)nc1OCc1cc(C(F)(F)F)cc(C(F)(F)F)c1 | Active | Active | inactive | Active | Active | Active | Active | Active | inactive | inactive | Active | Active | Active | Active | Active | Non-toxic | Active | inactive | Active | Active | Activity (Rotala indica [20]): inactive; Activity (Echinochloa oryzicola [21]): inactive; Activity (Rotala indica [22]): Active; Activity (Eleocharis acicularis [23]): inactive; Activity (Lindernia procumbens [24]): Active; Activity (Rotala indica [25]): Active; Activity (Elatine triandra [26]): inactive; Activity (Pontederia vaginalis [27]): inactive
CCCN(CC)C(=O)c1cn(C)nc1OCc1cccc(Br)c1 | Active | Active | Active | Active | Active | Active | Active | Active | inactive | inactive | Active | Active | Active | Active | Active | Non-toxic | Active | inactive | Active | Active | Activity (Rotala indica [20]): inactive; Activity (Echinochloa oryzicola [21]): Active; Activity (Rotala indica [22]): Active; Activity (Eleocharis acicularis [23]): Active; Activity (Lindernia procumbens [24]): Active; Activity (Rotala indica [25]): Active; Activity (Elatine triandra [26]): inactive; Activity (Pontederia vaginalis [27]): Active
